Experimental data: patent US11279744B2, “Neuropeptide Y fragment capable of releasing hematopoietic stem cells into blood and treating osteoporosis” (Kyungpook National University Industry-Academic Cooperation …, priority 2017, dated 2022)
Non-standard residues stand in square brackets, D forms with d. No end group written: not given here.

Experiments:
[1] = system: hematopoietic stem cell adhesion factors (Sdf-1a, KitI, Angpt1) present in osteoblasts; assay: expression of hematopoietic stem cell adhesion factors in osteoblasts, real-time quantitative PCR; assay type: cell-based, mouse; settings: for expression levels of Sdf-1a, KitI, and Angpt1 in osteoblasts: 10 nM peptide for 3 days, compared to osteoblasts (control) not treated with peptides, fold change
Protocol: All mice used in the experiment were 6 to 8 weeks old mice, C57BL/6 mice, and purchased from Jackson Laboratory (Bar Harbor, Me., USA). NPY (21-28) (SEQ ID NO: 1), NPY (24-31) (SEQ ID NO: 2), NPY (29-36) (SEQ ID NO: 3), NPY D25 (21-28) (SEQ ID NO: 4), NPY D26 (21-28) (SEQ ID NO: 5), NPY D25, 26 (21-28) (SEQ ID NO: 6), NPY (21-36) (Osteopep2) (SEQ ID NO: 7) were prepared from Anygen. Full length NPY (SEQ ID NO: 8) was purchased from Bachem. 10 nM of each peptide was diluted in each medium and injected for in vitro experiments. The NPY D^25(21-28) refers to a peptide in which arginine, the fifth amino acid of the amino acid sequence of NPY (21-28), is modified to D-type, the NPY D^26(21-28) refers to a peptide in which the sixth amino acid histidine is modified to D-form, and the D^25,26(21-28) refers to a peptide in which both the fifth and sixth amino acids are modified to D-form, respectively.
Four to six weeks old C57BL/6 mice were sacrificed after anesthesia, and then tibias and femurs were dissected. Bone marrow was harvested from tibias and femurs and single cell suspensions were obtained using a 40 μm cell strainer (Becton-Dickinson LAβware, Franklin Lakes, N.J.). Approximately […] were dispensed into 75-cm 2 flasks containing mesenchymal stem cells Stimulatory Supplements with antibiotics (Stem Cell Technologies, Inc) and MesenCult™ MSCBasal medium. The cells were incubated for 1 week and further incubated for 3 weeks with StemXVivo Osteogenic/Adipogenic Base Media (R & D systems) supplemented with StemXVivo Osteogenic supplement (20×) and penicillin-streptomycin (100×) for differentiation into osteoblasts.
Real-time quantitative PCR was used to measure expression levels of hematopoietic stem cell adhesion factors (Sdf-1a, KitI, Angpt1) present in osteoblasts. Total RNA was extracted from cell eluate and bone marrow cells using the RNeasy Plus mini kit (Qiagen, Korea, Ltd), and cDNAs were synthesized from 5 μg total RNA using a kit in Clontech (Mountain View, Calif.). In addition, using a Corbett research RG-6000 real-time PCR instrument, Real-time quantitative PCR was performed at 95° C. for 10 minutes; at 95° C., for 10 seconds; at 58° C., for 15 seconds; at 72° C. for 20 seconds as one cycle, and 40 cycles were repeated.
First, bone marrow was harvested from 4 to 6 weeks old C57BL6 mice, and mesenchymal stem cells (BM-MSCs) in bone marrow were collected, and then cultured for 3 weeks in osteoblast differentiation induction medium for the differentiation into osteoblasts. After 28 days, each peptide was treated with 10 nM for 3 days, and bone cells were collected and examined for expression levels of three adhesion factors by real-time quantitative PCR. Osteopep2 and its parent NPY were used as positive controls.

[2] = system: myelopoiesis stem cells in the bone marrow; assay: Flow cytometry analysis (FACs) of stem cells in bone marrow of osteoporosis animal models; assay type: in vivo, mouse; settings: OVX mice, 50 μg/kg i.p. twice a day for 4 weeks; bone marrow 1 hour after last dose
Protocol: To make an osteoporosis model, 10-18 12 weeks old female mice per group underwent ovarian ablation. A week later, 50 μg/kg of NPY(21-28), NPY D^25(21-28), NPY D^26(21-28), NPY D^25,26(21-28), Osteopep2, NPY and 100 μl of PBS(Gibco) were intraperitoneally administered twice a day for 4 weeks at 12 hour intervals. Alendronate (Sigma), used as a competitive drug, was intraperitoneally administered once a week for 4 weeks at a dose of 50 μg/kg. As a control group, only Sham model of osteoporosis was performed by subcutaneous dissection of female mouse. Mice were placed in experimental groups using the Block randomization method, and all mouse experiments were approved through the Kyungpook National University Institutional Animal Care and Use Committee.
To examine the changes in the number of myelopoiesis stem cells in the bone marrow of the mouse, the bone marrows of mice were collected and analyzed by FACs using five antibodies such as Lineage, Sca-1, c-kit, CD150, and CD48 as markers of myelopoiesis stem cells. For the analysis of myelopoiesis stem cell, bone marrow collected from the tibias and the femurs in the animal models of osteoporosis injected with each peptide was removed from red blood cells with ammonium chloride solution (Stem Cell Technologies, Inc. 1:4). […] The remaining cells were reacted for 30 minutes at 4° C. using Sca-1-PECY7, c-kit-APC, CD150-PE, and CD48-FITC (BD science) antibodies, and then were analyzed by LSRII (BD science) flow cytometry.
In order to investigate whether the NPY (21-28) of the present invention affects the blood release of myelopoiesis stem cells in the animal models of osteoporosis, the following experiments were carried out according to the methods of Examples 1-1, 1-3, 1-4, and 1-5. […] Weight change was measured weekly, and bone marrow and blood were collected one hour after the last dose at 4 weeks, and the release of myelopoiesis progenitor and stem cells into blood was analyzed. […]

Q: What does the source list for “NPY D^25,26(21-28): peptide in which both the fifth and sixth amino acids of NPY (21-28) are modified to D-form (YSAL[dR][dH]YI)”?
A: expression levels of Sdf-1a, KitI, and Angpt1 in osteoblasts [1]: decreased; amount of Angpt1 expression in osteoblasts, compared with NPY (21-28) ([1]; 10 nM peptide, osteoblasts): further reduce the amount of Angpt1 expression than NPY (21-28); number of myelopoiesis stem cells remaining in the bone marrow (FACs) [2]: reduced

Q: How did the “expression levels of Sdf-1a, KitI, and Angpt1 in osteoblasts” value [1] turn out when YSALRHYI [NPY (21-28)] was run?
A: The value was “decreased”.

Q: And the “number of myelopoiesis stem cells remaining in the bone marrow (FACs)” value [2]?
A: Its value is “reduced”.

Q: What does the source list for “NPY D^25(21-28): peptide in which arginine, the fifth amino acid of the amino acid sequence of NPY (21-28), is modified to D-type (YSAL[dR]HYI)”?
A: expression levels of Sdf-1a, KitI, and Angpt1 in osteoblasts [1]: decreased; number of myelopoiesis stem cells remaining in the bone marrow (FACs) [2]: reduced
